Calls of active or inactive are those of the source. The rule behind the calls is not given here.
What follows are compounds tested against Mitogen-activated protein kinase kinase kinase 2 (Homo sapiens) + Dual specificity mitogen-activated protein kinase kinase 5 (Homo sapiens) (UniProt Q9Y2U5+Q13163) (assay: inhibitors of MEK5 binding to MEKK2, dose response, biochemical, bead multiplex flow cytometry, wildtype (AID 1897)). Conditions: MEK5-MEKK2 PB1 binding.
Chain of Mitogen-activated protein kinase kinase kinase 2 (Homo sapiens) + Dual specificity mitogen-activated protein kinase kinase 5 (Homo sapiens) (Q13163 whole entry, looked up): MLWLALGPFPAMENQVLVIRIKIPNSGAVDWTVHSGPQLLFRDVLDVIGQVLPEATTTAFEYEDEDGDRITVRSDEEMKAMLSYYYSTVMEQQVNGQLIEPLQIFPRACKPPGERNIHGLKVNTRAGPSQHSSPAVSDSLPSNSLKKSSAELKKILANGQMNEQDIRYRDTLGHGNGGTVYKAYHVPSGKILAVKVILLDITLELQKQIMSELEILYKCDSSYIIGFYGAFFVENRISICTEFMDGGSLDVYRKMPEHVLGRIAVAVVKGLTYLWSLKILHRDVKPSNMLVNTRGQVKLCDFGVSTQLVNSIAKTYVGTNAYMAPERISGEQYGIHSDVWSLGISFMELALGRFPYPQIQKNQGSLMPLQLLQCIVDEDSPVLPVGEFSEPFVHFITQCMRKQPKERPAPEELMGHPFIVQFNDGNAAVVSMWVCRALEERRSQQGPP
Chain of Mitogen-activated protein kinase kinase kinase 2 (Homo sapiens) + Dual specificity mitogen-activated protein kinase kinase 5 (Homo sapiens) (Q9Y2U5 whole entry, looked up): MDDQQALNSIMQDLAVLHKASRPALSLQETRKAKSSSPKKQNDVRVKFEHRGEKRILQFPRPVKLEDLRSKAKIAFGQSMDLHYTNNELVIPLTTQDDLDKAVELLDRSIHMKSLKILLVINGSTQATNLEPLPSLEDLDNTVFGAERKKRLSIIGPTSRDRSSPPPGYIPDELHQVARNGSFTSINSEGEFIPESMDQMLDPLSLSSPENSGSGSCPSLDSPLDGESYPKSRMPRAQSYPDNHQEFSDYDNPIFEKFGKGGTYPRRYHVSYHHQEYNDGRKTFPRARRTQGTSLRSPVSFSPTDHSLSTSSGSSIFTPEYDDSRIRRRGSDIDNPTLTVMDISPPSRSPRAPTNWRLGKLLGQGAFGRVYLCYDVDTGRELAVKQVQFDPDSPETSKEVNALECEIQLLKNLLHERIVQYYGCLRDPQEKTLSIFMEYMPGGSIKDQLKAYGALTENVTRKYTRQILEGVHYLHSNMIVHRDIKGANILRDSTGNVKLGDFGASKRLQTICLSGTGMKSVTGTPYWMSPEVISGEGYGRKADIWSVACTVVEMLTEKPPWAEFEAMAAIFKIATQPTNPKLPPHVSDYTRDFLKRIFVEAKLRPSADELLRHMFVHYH

SMILES | EC50
CC[C@@H](C)[C@H](CNC)NC[C@@H](Cc1cccc2ccccc12)NCCc1cccc(C(F)(F)F)c1 | 2.03 µM
CCN1C(c2ccccc2)=C(c2ccccc2)S/C1=C/C=C1\SC(=S)N(C)C1=O | 2.73 µM
COc1ccc(CNC[C@@H](CCCCN(C)Cc2ccc(OC)cc2)N2C[C@H](c3ccccc3)N(CCc3ccc(Cl)c(Cl)c3)C(=O)C2=O)cc1 | 1.48 µM
C#CCOCCOCCOCCNc1nc(N2CCN(C(=O)C(Cc3cc4ccccc4[nH]3)n3cc(C(N)C(C)CC)nn3)CC2)nc(N2CCN(C(=O)C(Cc3cc4ccccc4[nH]3)n3cc(C(N)C(C)CC)nn3)CC2)n1 (stereo not drawn) | 1.75 µM
OCCCCNCc1ccc(OCc2ccc(Cl)cc2Cl)cc1 | > 30 µM (inactive)
C#CCOCCOCCOCCNc1nc(N2CCN(C(=O)[C@H](Cc3cc4ccccc4[nH]3)n3cc([C@@H](N)C(C)CC)nn3)CC2)nc(N2CCN(C(=O)[C@H](Cc3cc4ccccc4[nH]3)n3cc([C@@H](N)CC(C)C)nn3)CC2)n1 (stereo partly drawn) | 2.69 µM
C=CCN1C(=O)/C(=C/c2ccc(-c3ccc(F)cc3)o2)SC1=S | 2.06 µM
COCCNC(=O)CN(c1cc(Cl)ccc1OC)S(=O)(=O)c1ccc(C)c([N+](=O)[O-])c1 | > 30 µM (inactive)
Nc1ccc2nc(-c3ccc(-c4nc5ccc(N)cc5[nH]4)cc3)[nH]c2c1 | > 30 µM (inactive)
C#CCOCCOCCOCCNc1nc(N2CCN(C(=O)[C@H](Cc3ccc(O)cc3)n3cc([C@@H](N)C(C)CC)nn3)CC2)nc(N2CCN(C(=O)[C@H](Cc3cc4ccccc4[nH]3)n3cc([C@@H](N)Cc4ccc(O)cc4)nn3)CC2)n1 (stereo partly drawn) | 12.5 µM
CCCCCc1cc(=O)oc2c(C(CCN3CCCC(C)C3)c3ccc(OC)cc3)c(OC)cc(OC)c12 (stereo not drawn) | 9.57 µM
CCN(CC)CCOC(=O)c1ccc(N/C=C(/C#N)c2nc(-c3ccc(OC)cc3)cs2)cc1 | > 30 µM (inactive)
CCc1ccc(Nc2n[n+](-c3ccccc3)c(-c3ccc(OCc4ccccc4)cc3)s2)cc1 | 5.48 µM
CCc1ccc(Nc2n[n+](-c3ccccc3)c(-c3cc(OC)c(OC)cc3Br)s2)cc1 | 5.06 µM
CNC[C@H](CC1CCCCC1)NC[C@H](Cc1ccccc1)NCCC12CC3CC(CC(C3)C1)C2 | 4.93 µM
CN(C)CCCNc1cc(C(C)(C)C)nc2c(-c3ccc(Cl)cc3)cnn12 | 4.35 µM
C#CCOCCOCCOCCNc1nc(N2CCN(C(=O)[C@H](CCC(=O)O)n3cc(C(N)CO)nn3)CC2)nc(N2CCN(C(=O)[C@H](Cc3cc4ccccc4[nH]3)n3cc(C(N)[C@H](C)CC)nn3)CC2)n1 (stereo partly drawn) | > 30 µM (inactive)
N=C(N)SCc1cn(-c2ccccc2)nc1-c1ccc(Br)cc1 | 3.13 µM
O=C(NNc1c2ccccc2nc2ccccc12)c1cc2ccccc2cc1O | > 30 µM (inactive)
O=C(OCC1O[C@@H](OC(=O)c2cc(O)c(O)c(O)c2)[C@@H](OC(=O)c2cc(O)c(O)c(O)c2)[C@@H](OC(=O)c2cc(O)c(O)c(O)c2)[C@@H]1OC(=O)c1cc(O)c(O)c(O)c1)c1cc(O)c(O)c(O)c1 (stereo partly drawn) | > 30 µM (inactive)
COc1cccc(OC)c1-c1nn2c(-c3cc(-c4ccccc4)n[nH]3)nnc2s1 | 5.32 µM

SMILES | EC50
CCN1CCN(Cc2ccc(NC(=O)c3cc(NC(=O)c4cnn(-c5ccccc5)c4N)cc(OC)c3)cc2C(F)(F)F)CC1 | > 30 µM (inactive)
CCCCCCCCCCOC(=O)Cn1c(COc2ccc(OC)cc2)[n+](C)c2ccccc21 | > 30 µM (inactive)
C#CCOCCOCCOCCNc1nc(N2CCN(C(=O)[C@H]([C@@H](C)CC)n3cc([C@@H](N)Cc4ccc(O)cc4)nn3)CC2)nc(N2CCN(C(=O)[C@H](CCCCN)n3cc([C@@H](N)CC(C)C)nn3)CC2)n1 | 10.1 µM
CCCCCCCCCCOC(=O)Cn1c(COc2ccccc2OC)[n+](C)c2ccccc21 | 3.05 µM
CN(C)c1ccc(/C=C/C=C2/SC(=S)N(c3ccccc3)C2=O)cc1 | 0.95 µM
CCCCCCCCCCOC(=O)Cn1c(COc2ccc(C)cc2)[n+](C)c2ccccc21 | 1.8 µM
CCCCCCCCCCOC(=O)Cn1c(COc2cccc(OC)c2)[n+](C)c2ccccc21 | 4.33 µM
NC(=NCCCCCCN=C(N)/N=C(\N)Nc1ccc(Cl)cc1)/N=C(\N)Nc1ccc(Cl)cc1 | 0.67 µM
CC(=O)c1c(C)[nH]c(C(=O)NC2=NCCS2)c1C | > 30 µM (inactive)
Cc1cc(N=Nc2ccc(C)c(N=Nc3cc(C)c(N)cc3N)c2)c(N)cc1N | > 30 µM (inactive)
CN1CCN(CC(O)COc2ccc(C34CC5CC(CC(C5)C3)C4)cc2)CC1 (stereo not drawn) | > 30 µM (inactive)
CCc1ccc(Nc2n[n+](-c3ccccc3)c(-c3ccc(OC)c(Br)c3)s2)cc1 | 2.85 µM
CC(C)N=c1cc2n(-c3ccc(Cl)cc3)c3ccccc3nc-2cc1Nc1ccc(Cl)cc1 | > 30 µM (inactive)
CCC(/C=C1\Sc2ccc(OC)cc2N1CCO)=C\c1sc2ccc(OC)cc2[n+]1CCO | 0.87 µM
CCCCCCCCCCCCCCCC[n+]1ccc(/C=N/O)cc1 | 2.94 µM
C#CCOCCOCCOCCNc1nc(N2CCN(C(=O)[C@H]([C@@H](C)CC)n3cc([C@@H](N)CO)nn3)CC2)nc(N2CCN(C(=O)[C@H](Cc3cc4ccccc4[nH]3)n3cc([C@@H](N)C(C)CC)nn3)CC2)n1 (stereo partly drawn) | > 30 µM (inactive)
CCCSc1ncnc2sc(C)c(C)c12 | > 30 µM (inactive)
C#CCOCCOCCOCCNc1nc(N2CCN(C(=O)C(Cc3ccc(O)cc3)n3cc(C(N)CC(C)C)nn3)CC2)nc(N2CCN(C(=O)C(Cc3cc4ccccc4[nH]3)n3cc(C(N)Cc4ccc(O)cc4)nn3)CC2)n1 (stereo not drawn) | 6.12 µM
Nc1cc2nc[nH]c2cc1N | 10.7 µM
COc1ccc(C(CCNCc2ccc(OC(C)C)cc2)c2ccccc2OC)cc1 (stereo not drawn) | > 30 µM (inactive)

The remaining lines, values ahead:

EC50 | SMILES
1.55 µM | CCOC(=O)c1c(-c2ccc(-c3ccccc3)cc2)csc1NC(=O)CNCCN(C)C
5.19 µM | FC(F)(F)c1cccc(NC(=S)N(CCCN2CCCC2)Cc2cccn2Cc2ccc(Cl)cc2)c1
3.02 µM | Cc1cc2ccccc2n1CCNC(=O)c1ccccc1
> 30 µM (inactive) | O=C1c2ccccc2-c2onc3ccc(NCc4ccco4)c1c23
> 30 µM (inactive) | CS(=O)(=O)N1N=C(c2ccccc2)CC1c1ccc2c(c1)OCO2 (stereo not drawn)
> 30 µM (inactive) | COc1ccccc1N(CN1C(=O)c2ccccc2C1=O)C(=O)c1cccc(C)c1
5.13 µM | Cc1ccc(CN2CCSc3ccc(C(=O)NC4CCN(Cc5ccccc5)CC4)cc32)cc1
> 30 µM (inactive) | CCOC(=O)C1=C(c2ccccc2)NC(N)=NC1c1ccc(OCc2ccc(C(=O)OC)cc2)cc1 (stereo not drawn)
5.12 µM | CCc1ccc(-c2nn(-c3ccccc3)cc2CSC(=N)N)cc1
3.89 µM | COc1cc2nc(N3CCN(c4cc(C)ccc4C)CC3)nc(N)c2cc1OC
> 30 µM (inactive) | CNC(=O)C(=O)Nc1c(C)cc(C)cc1C
4.95 µM | CCNc1ccc2noc3c2c1C(=O)c1ccccc1-3
9.91 µM | Cc1ccc(-c2c[n+](CC(=O)Nc3nc(-c4ccc(F)cc4)cs3)c3n2CCC3)cc1
> 30 µM (inactive) | COc1ccc(CSc2n[nH]c(C)n2)cc1[N+](=O)[O-]
5.94 µM | CCN(CC)CCNC(=O)c1ccc(NC(=O)c2cn(-c3ccccc3)nc2-c2cccs2)cc1
> 30 µM (inactive) | CCn1cc(C(=O)O)c(=O)c2cc(F)c(N3CCN(C(=S)NC(=O)c4ccc(Br)cc4)CC3)cc21
> 30 µM (inactive) | CCN(CC)CCOC(=O)c1ccc(N/C=C(/C#N)c2nc(-c3cccc(OC)c3)cs2)cc1
> 30 µM (inactive) | Cc1ccnc(NC(=O)C2(c3cccs3)CCOCC2)c1
6.61 µM | CCN1CCN(CCNC(=O)c2ccc(/C=C3/Sc4ccccc4N(Cc4cccc(C)c4)C3=O)cc2)CC1
> 30 µM (inactive) | COCc1c(C#N)c(NCCc2ccccc2)nc(C)c1[N+](=O)[O-]
0.58 µM | CCOC(=O)C1=C(c2ccccc2)NC(N)=NC1c1ccc(OCc2ccc(Cl)cc2)c(OC)c1 (stereo not drawn)

EC50 | SMILES
1.95 µM | N#CC(C#N)=c1ccc2c(c1)N1C(c3ccccc3)=CC(c3ccccc3)C3CCCCC31N=2 (stereo not drawn)
> 30 µM (inactive) | C=CC#CC[N+]1(CC#Cc2ccccc2)CCOCC1
2.26 µM | CN1CCN(c2ccc(NC(=O)c3ccc(-c4ccc(Cl)cc4)o3)cc2)CC1
> 30 µM (inactive) | CCN1CCN(Cc2ccc(NC(=O)c3ccc(C)c(NC(=O)C(=O)c4c[nH]c5ccccc45)c3)cc2C(F)(F)F)CC1
> 30 µM (inactive) | COc1ccc(N2CC(C(=O)Nc3nnc(SCc4ccccn4)s3)CC2=O)cc1 (stereo not drawn)
5.82 µM | CSc1cccc(NC(=S)N(CCCN2CCCC2)Cc2cccn2Cc2ccc(Cl)cc2)c1
> 30 µM (inactive) | COc1ccc2[nH]c3c(C)c4ccncc4c(C)c3c2c1
> 30 µM (inactive) | CCN(CC)CCOC(=O)c1ccc(NC(=O)c2cn(-c3ccccc3)nc2-c2cccs2)cc1
7.03 µM | COC(=O)C1=C(C)N(Cc2ccccc2)C(=NCc2cccc(C(F)(F)F)c2)N[C@H]1c1cccc(F)c1
> 30 µM (inactive) | O=C(Nc1ccc(C2=NCCN2)cc1)c1ccc(C(=O)Nc2ccc(C3=NCCN3)cc2)c([N+](=O)[O-])c1
> 30 µM (inactive) | COc1cc(/C=N/NC(=O)c2cc3ccccc3cc2O)ccc1OCCN1CCCCC1
3.48 µM | Cc1cc2ccccc2n1CCNC(=O)c1ccc(Br)o1
> 30 µM (inactive) | Cc1sc(NC(=O)c2ccccc2)c(C(c2ccccn2)N2CCN(CCO)CC2)c1C (stereo not drawn)
> 30 µM (inactive) | C/C(=N\NC(=O)c1cc(O)cc(O)c1)c1ccc(NC(=O)Cc2ccccc2)cc1
> 30 µM (inactive) | O=C(CCCC(=O)N(CC(=O)NC1CCCC1)C1CCCC1)Nc1ccccn1
> 30 µM (inactive) | CC(=O)Nc1cccc2c1C(=O)N(c1cccc(C)c1)C2=O
> 30 µM (inactive) | CN(C)CCCN(C(=O)c1ccc2c(c1)CCCC2)c1nc2ccc(Cl)cc2s1
> 30 µM (inactive) | CNc1nc(-c2c[nH]c3ccccc23)cs1
> 30 µM (inactive) | CCOC(=O)N1CCN(c2c(N3CCN(c4ccccc4F)CC3)c(=O)c2=O)CC1
> 30 µM (inactive) | CN(C)CCCn1c(SCC(=O)Nc2nc(-c3cccc(Br)c3)cs2)nc2ccccc2c1=O

Same assay, conditions: MEK5-MEKK2 PB1 binding, measured here: Ki from binding competition

SMILES | Ki [µM]
CCN1C(c2ccccc2)=C(c2ccccc2)S/C1=C/C=C1\SC(=S)N(C)C1=O | 2.44
C=CCN1C(=O)/C(=C/c2ccc(-c3ccc(F)cc3)o2)SC1=S | 1.84
COc1cccc(OC)c1-c1nn2c(-c3cc(-c4ccccc4)n[nH]3)nnc2s1 | 4.76
CN(C)c1ccc(/C=C/C=C2/SC(=S)N(c3ccccc3)C2=O)cc1 | 0.85
CCC(/C=C1\Sc2ccc(OC)cc2N1CCO)=C\c1sc2ccc(OC)cc2[n+]1CCO | 0.78
Nc1cc2nc[nH]c2cc1N | 9.61

Second part, the compound after the results:

Ki [µM] | SMILES
2.7 | Cc1cc2ccccc2n1CCNC(=O)c1ccccc1
4.43 | CCNc1ccc2noc3c2c1C(=O)c1ccccc1-3
1.75 | N#CC(C#N)=c1ccc2c(c1)N1C(c3ccccc3)=CC(c3ccccc3)C3CCCCC31N=2 (stereo not drawn)
2.02 | CN1CCN(c2ccc(NC(=O)c3ccc(-c4ccc(Cl)cc4)o3)cc2)CC1
3.12 | Cc1cc2ccccc2n1CCNC(=O)c1ccc(Br)o1

Source: PubChem BioAssay AID1897 (NMMLSC, 2009)
